Source: US6420586B1 (priority 2000, dated 2002)

Columns and labels:
Type in all cases: biochemical
[1] = system: Herpes Simplex Virus Protease
HIV protease = target: T1, HIV protease (Human immunodeficiency virus type 1 group M subtype B, UniProt P04585)
T1 construct: a key virally encoded protease enzyme of the pol gene

human cathepsin K = target: T2, human cathepsin K (Homo sapiens, UniProt P43235); assay: Inhibition of human cathepsin K (fluorescence peptide assay); conditions: compound concentration 106 μmolar; pH 5.5, 10 μmolar peptide
T2 sequence (P43235 115-329): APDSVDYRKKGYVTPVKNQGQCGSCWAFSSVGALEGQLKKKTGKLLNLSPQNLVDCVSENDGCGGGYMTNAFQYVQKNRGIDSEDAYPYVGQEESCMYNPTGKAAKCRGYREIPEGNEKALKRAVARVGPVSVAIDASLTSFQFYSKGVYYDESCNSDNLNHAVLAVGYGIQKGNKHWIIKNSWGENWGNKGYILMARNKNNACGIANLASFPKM
Method: The inhibition of human cathepsin K by the compound shown in Scheme N (106 μmolar) was determined. The peptides utilized were chromophoric Z-Phe-Arg-pNA*HCl and fluorogenic Z-Phe-Arg-AMC (each available from BACHEM Bioscience, Inc.). Stock solutions were prepared with 100% dimethylsulfoxide (DMSO) and stored at −20° C.
The final assay conditions were 100 mM NaOAc, pH of 5.5, 10 mM (R,R)-dithiothreitol (DTT), 10% DMSO, 120 mM NaCl, 10 μmolar of the peptide, and 12.5-0.012 μmolar inhibitor in twofold serial dilutions from 20× stocks in 100% DMSO. The enzyme working solution was a 1:3000 dilution of […] human cathepsin K into 100 mM of NaOAc, pH of 5.5, 10 mM DTT, 1.2 M NaCl.
Serial dilutions were performed in 100% DMSO. Columns 2-12 of an intermediate plate were filled with […] of 100% DMSO and column 1 was filled with […]. Next, […] of a 10 mM solution was added to column 1. A twofold serial dilution was prepared in columns 1-11 of the intermediate plate by sequential transfer of […] of the contents of each well in a column to the corresponding well of the next column, with mixing between each transfer. […] The fluorescence was monitored every 6 minutes for 72 minutes using a CytoFluor Series 4000 PerSeptive Biosystems multi-well fluorescence plate reader with the following settings: gain=50; 20 reads/well; 32° C.; lex=360±20 nm; and lem=440±120 nm.

Compound | inhibition of the protease [1] [%] | inhibition of the protease (HIV protease) [%] | inhibition of human cathepsin K (human cathepsin K) [%]
C=CCOP1(=O)OCC=CCN1[C@H](C(=O)OC)C(C)C (stereo partly drawn) [Scheme L] | 34.7 | – | –
COP1(=O)N[C@@H](C(C)C)C=C[C@H](C(C)C)O1 (stereo partly drawn) [Scheme M] | 33.5 | – | –
CC(C)(C)OC(=O)NC(Cc1ccccc1)CN1CC=CCN(C[C@H](Cc2ccccc2)NC(=O)OC(C)(C)C)P1(=O)Cl (stereo partly drawn) [Scheme N] | 44.4 | 23 | 34
COP1(=O)N(Cc2ccccc2)CC=CCN1Cc1ccccc1 [Scheme K] | 25.5 | – | –
